{"source": "ChEMBL document CHEMBL1201862", "about": "“PubChem BioAssay data set” (2004)", "test_in_all_cases": "DTP human tumour cell line panel, 48 h", "key": {"SK-MEL-2": {"test_system": "SK-MEL-2"}, "HOP-92": {"test_system": "HOP-92"}, "MDA-MB-435": {"test_system": "MDA-MB-435"}, "UO-31": {"test_system": "UO-31"}, "OVCAR-3": {"test_system": "OVCAR-3"}, "OVCAR-5": {"test_system": "OVCAR-5"}, "MDA-N": {"test_system": "MDA-N"}, "SNB-19": {"test_system": "SNB-19"}, "SK-MEL-5": {"test_system": "SK-MEL-5"}, "T47D": {"test_system": "T47D"}, "RPMI-8226": {"test_system": "RPMI-8226"}, "HCT-116": {"test_system": "HCT-116"}, "786-0": {"test_system": "786-0"}, "RXF 393": {"test_system": "RXF 393"}, "MOLT-4": {"test_system": "MOLT-4"}, "CAKI-1": {"test_system": "CAKI-1"}, "NCI-H522": {"test_system": "NCI-H522"}, "SK-MEL-28": {"test_system": "SK-MEL-28"}, "HT-29": {"test_system": "HT-29"}, "BT-549": {"test_system": "BT-549"}, "CCRF-CEM": {"test_system": "CCRF-CEM"}, "A549": {"test_system": "A549"}, "NCI/ADR-RES": {"test_system": "NCI/ADR-RES"}, "NCI-H460": {"test_system": "NCI-H460"}, "LOX IMVI": {"test_system": "LOX IMVI"}, "PC-3": {"test_system": "PC-3"}, "UACC-62": {"test_system": "UACC-62"}, "SN12C": {"test_system": "SN12C"}, "SW-620": {"test_system": "SW-620"}, "COLO 205": {"test_system": "COLO 205"}, "A498": {"test_system": "A498"}, "U-251": {"test_system": "U-251"}, "NCI-H23": {"test_system": "NCI-H23"}, "SF-295": {"test_system": "SF-295"}, "Hs-578T": {"test_system": "Hs-578T"}, "ACHN": {"test_system": "ACHN"}, "Malme-3M": {"test_system": "Malme-3M"}, "SNB-75": {"test_system": "SNB-75"}, "MDA-MB-231": {"test_system": "MDA-MB-231"}, "UACC-257": {"test_system": "UACC-257"}, "SK-OV-3": {"test_system": "SK-OV-3"}, "SF-268": {"test_system": "SF-268"}, "OVCAR-4": {"test_system": "OVCAR-4"}, "M14": {"test_system": "M14"}, "K562": {"test_system": "K562"}, "HOP-62": {"test_system": "HOP-62"}, "SF-539": {"test_system": "SF-539"}, "NCI-H226": {"test_system": "NCI-H226"}, "HCT-15": {"test_system": "HCT-15"}, "OVCAR-8": {"test_system": "OVCAR-8"}, "KM12": {"test_system": "KM12"}, "EKVX": {"test_system": "EKVX"}, "MCF7": {"test_system": "MCF7"}, "IGROV-1": {"test_system": "IGROV-1"}, "DU-145": {"test_system": "DU-145"}, "TK-10": {"test_system": "TK-10"}}, "note": "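Test compounds were applied to cells in 96-well plates for 48 hours at 5 doses. The concentration for 50% growth inhibition is given as GI50.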 Activity calls are given as the source filed them. No stated cut-off is given here; in the data, active = GI50 up to about 1.1 µM and inactive = higher."}
{"smiles": "CC(C)(C)OC(=O)CC(NC(=O)OC(C)(C)C)C(=O)Oc1ccc([N+](=O)[O-])cc1", "note": "(stereo unspecified)", "values": [{"measurement": "GI50", "setting": "SK-MEL-2", "result": "> 100 µM (inactive)"}, {"measurement": "GI50", "setting": "HOP-92", "result": "> 100 µM (inactive)"}, {"measurement": "GI50", "setting": "MDA-MB-435", "result": "> 100 µM (inactive)"}, {"measurement": "GI50", "setting": "UO-31", "result": "> 100 µM (inactive)"}, {"measurement": "GI50", "setting": "OVCAR-3", "result": "> 100 µM (inactive)"}, {"measurement": "GI50", "setting": "OVCAR-5", "result": "> 100 µM (inactive)"}, {"measurement": "GI50", "setting": "MDA-N", "result": "> 100 µM (inactive)"}, {"measurement": "GI50", "setting": "SNB-19", "result": "> 100 µM (inactive)"}, {"measurement": "GI50", "setting": "SK-MEL-5", "result": "78.7 µM (inactive)"}, {"measurement": "GI50", "setting": "T47D", "result": "89.5 µM (inactive)"}, {"measurement": "GI50", "setting": "RPMI-8226", "result": "> 100 µM (inactive)"}, {"measurement": "GI50", "setting": "HCT-116", "result": "> 100 µM (inactive)"}, {"measurement": "GI50", "setting": "786-0", "result": "> 100 µM (inactive)"}, {"measurement": "GI50", "setting": "RXF 393", "result": "> 100 µM (inactive)"}, {"measurement": "GI50", "setting": "MOLT-4", "result": "> 100 µM (inactive)"}, {"measurement": "GI50", "setting": "CAKI-1", "result": "> 100 µM (inactive)"}, {"measurement": "GI50", "setting": "NCI-H522", "result": "> 100 µM (inactive)"}, {"measurement": "GI50", "setting": "SK-MEL-28", "result": "> 100 µM (inactive)"}, {"measurement": "GI50", "setting": "HT-29", "result": "> 100 µM (inactive)"}, {"measurement": "GI50", "setting": "BT-549", "result": "> 100 µM (inactive)"}, {"measurement": "GI50", "setting": "CCRF-CEM", "result": "> 100 µM (inactive)"}, {"measurement": "GI50", "setting": "A549", "result": "> 100 µM (inactive)"}, {"measurement": "GI50", "setting": "NCI/ADR-RES", "result": "> 100 µM (inactive)"}, {"measurement": "GI50", "setting": "NCI-H460", "result": "> 100 µM (inactive)"}, {"measurement": "GI50", "setting": "LOX IMVI", "result": "> 100 µM (inactive)"}, {"measurement": "GI50", "setting": "PC-3", "result": "> 100 µM (inactive)"}, {"measurement": "GI50", "setting": "UACC-62", "result": "11.1 µM (inactive)"}, {"measurement": "GI50", "setting": "SN12C", "result": "> 100 µM (inactive)"}, {"measurement": "GI50", "setting": "SW-620", "result": "> 100 µM (inactive)"}, {"measurement": "GI50", "setting": "COLO 205", "result": "> 100 µM (inactive)"}, {"measurement": "GI50", "setting": "A498", "result": "> 100 µM (inactive)"}, {"measurement": "GI50", "setting": "U-251", "result": "> 100 µM (inactive)"}, {"measurement": "GI50", "setting": "NCI-H23", "result": "> 100 µM (inactive)"}, {"measurement": "GI50", "setting": "SF-295", "result": "> 100 µM (inactive)"}, {"measurement": "GI50", "setting": "Hs-578T", "result": "> 100 µM (inactive)"}, {"measurement": "GI50", "setting": "ACHN", "result": "> 100 µM (inactive)"}, {"measurement": "GI50", "setting": "Malme-3M", "result": "> 100 µM (inactive)"}, {"measurement": "GI50", "setting": "SNB-75", "result": "> 100 µM (inactive)"}, {"measurement": "GI50", "setting": "MDA-MB-231", "result": "> 100 µM (inactive)"}, {"measurement": "GI50", "setting": "UACC-257", "result": "> 100 µM (inactive)"}, {"measurement": "GI50", "setting": "SK-OV-3", "result": "29.9 µM (inactive)"}, {"measurement": "GI50", "setting": "SF-268", "result": "3.2 µM (inactive)"}, {"measurement": "GI50", "setting": "OVCAR-4", "result": "> 100 µM (inactive)"}, {"measurement": "GI50", "setting": "M14", "result": "> 100 µM (inactive)"}, {"measurement": "GI50", "setting": "K562", "result": "> 100 µM (inactive)"}, {"measurement": "GI50", "setting": "HOP-62", "result": "> 100 µM (inactive)"}, {"measurement": "GI50", "setting": "SF-539", "result": "> 100 µM (inactive)"}, {"measurement": "GI50", "setting": "NCI-H226", "result": "> 100 µM (inactive)"}, {"measurement": "GI50", "setting": "HCT-15", "result": "> 100", "unit": "µM"}, {"measurement": "GI50", "setting": "OVCAR-8", "result": "> 100 µM (inactive)"}, {"measurement": "GI50", "setting": "KM12", "result": "> 100 µM (inactive)"}, {"measurement": "GI50", "setting": "EKVX", "result": "> 100 µM (inactive)"}, {"measurement": "GI50", "setting": "MCF7", "result": "> 100 µM (inactive)"}, {"measurement": "GI50", "setting": "IGROV-1", "result": "> 100 µM (inactive)"}, {"measurement": "GI50", "setting": "DU-145", "result": "> 100 µM (inactive)"}, {"measurement": "GI50", "setting": "TK-10", "result": "> 100 µM (inactive)"}]}
